Values of other authors in US9695131B2, “Substituted uracils as chymase inhibitors” (Bayer Pharma Aktiengesellschaft, priority 2013, dated 2017).

System: hamsters with myocardial infarction

CCOc1ccccc1CC1C(=O)N(C(=O)NC(c2ccc(C)cc2)c2ccc(C)cc2)C1Oc1ccc(C(=O)O)cc1 (stereo not drawn) [BCEAB]
chymase activity: reduced
haemodynamics: improved
mortality: reduced
